According to paper PMC9477487, “Multitarget drugs as potential therapeutic agents for alzheimer’s disease. A new family of 5-substituted indazole derivatives as cholinergic and BACE1 inhibitors” (Journal of Enzyme Inhibition and Medicinal Chemistry, 2022):

Key:
[1] = target: T1, AChE from human erythrocytes (Homo sapiens, UniProt P22303); assay: In vitro AChE inhibition assay (Ellman); type: biochemical; settings: for IC50: mean ± SEM, 3 experiments, acetylthiocholine substrate; for inhibition at 10 µM: 10 µM compound, read-out: AChE percentage of inhibition at 10 µM
T1 construct: AChE from human erythrocytes (EC 3.1.1.7); purchased Sigma; host or cells: human erythrocytes (tissue-derived)
Description: (§1) AChE from human erythrocytes (EC 3.1.1.7) (min. 500 units/mg protein in buffered aqueous solution) and BuChE from human serum (EC 3.1.1.8) (3 units/mg protein, lyophilised powder) were purchased from Sigma.
(§2) Compounds were evaluated in 100 mM phosphate buffer pH 8.0 at 30 °C, using acetylthiocholine and butyrylthiocholine (0.4 mM) as substrates, respectively. In both cases, 5,5-dithio-bis(2-nitrobenzoic) acid (DTNB, Ellman’s reagent, 0.2 mM) was used and the values of IC50 were calculated by UV spectroscopy from the absorbance changes at 412 nm. Experiments were performed in triplicate.

BuChE from human serum = target: T2, BuChE from human serum (Homo sapiens, UniProt P06276); assay: In vitro BuChE inhibition assay (Ellman); type: biochemical; settings: for IC50: mean ± SEM, 3 experiments, butyrylthiocholine substrate; for inhibition at 10 µM / BuChE percentage of inhibition at 10 µM: 10 µM compound; for inhibition at 10 µM: read-out: BuChE percentage of inhibition at 10 µM
T2 construct: BuChE from human serum (EC 3.1.1.8); purchased Sigma; host or cells: human serum (tissue-derived)
Description: as §1, §2

BACE1 = target: T3, BACE1 (Homo sapiens, UniProt P56817); assay: BACE1 enzymatic FRET assay; type: biochemical; settings: for IC50: pH 4.5, mean ± SEM; for inhibition at 10 µM: pH 4.5, 10 µM compound, read-out: BACE1 percentage of inhibition at 10 µM
T3 construct: purchased Invitrogen
Description: The BACE1 ([…]) assay was carried out according to the manufacturer’s described protocol which is available from Invitrogen[36].
Briefly, BACE1 in vitro assays were carried out using fluorescence resonance energy transfer (FRET). An APP-based peptide substrate (rhodamine-EVNLDAEFK-quencher, Km of 20 μM) carrying the Swedish mutation and containing rhodamine as a fluorescence donor and a quencher acceptor at each end was used. The intact substrate is weakly fluorescent and becomes highly fluorescent upon enzymatic cleavage. The assays were conducted in 50 mM sodium acetate buffer, pH 4.5, at a final enzyme concentration of 1 U/mL. Inhibitor screening was performed at 10 μM. The mixture was incubated for 60 min at 25 °C under dark conditions and then stopped with 2.5 M sodium acetate. Fluorescence was measured with a FLUOstar Optima (BMG Labtechnologies GmbH, Offenburg, Germany) microplate reader at 545 nm excitation and 585 nm emission. The assay kit was validated by the manufacturer.

[2] = Oxygen radical absorbance capacity assay (ORAC-FL); settings: for ORAC (Oxygen Radical Absorbance Capacity): pH 7.4
Description: The ORAC-FL method of Ou et al.[37], partially modified by Dávalos et al.[38], was followed, using a FLUOstar Optima (BMG Labtechnologies GmbH, Offenburg, Germany) with 485 excitation and 520 emission filters. 2,2′-Azobis-(amidinopropane) dihydrochloride (AAPH), (±)-6-hydroxy-2,5,7,8-tetramethylchromane-2-carboxylic acid (trolox) and fluorescein (FL) were purchased from Sigma-Aldrich. The reaction was carried out in 75 mM phosphate buffer (pH 7.4) and the final reaction mixture was 200 µL. […] The mixture was pre-incubated for 30 min at 37 °C and then AAPH solution (25 µL, 240 mM) was added rapidly using a multichannel pipette. The microplate was immediately placed in the reader and the fluorescence was recorded every 90 s. for 90 min. The microplate was automatically shaken prior to each reading. Samples were measured at four different concentrations (10^−1 µM). A blank (FL + AAPH in phosphate buffer) instead of the sample solution and four calibration solutions using trolox (10^−1 µM) was also used in each assay. All of the reaction mixtures were prepared in duplicate and at least three independent assays were performed for each sample. Raw data were exported from the Fluostar optima Software to an Excel sheet for further calculations. Antioxidant curves (fluorescence vs. time) were represented and the area under the curve (AUC) is calculated as: AUC =f1/f0+fi/f0+ … +f34/f0+ (f35/f0) where fo = initial fluorescence reading at 0 min and fi = fluorescence reading at time i. The net AUC is obtained by subtracting the AUC of the blank from that of a sample. The relative Trolox equivalent ORAC value is calculated as: Relative ORAC value =[(AUC sample - AUC blank)/(AUCT rolox - AUC blank)](molarity of trolox/molarity of sample)

T2 sequence (P06276 29-602): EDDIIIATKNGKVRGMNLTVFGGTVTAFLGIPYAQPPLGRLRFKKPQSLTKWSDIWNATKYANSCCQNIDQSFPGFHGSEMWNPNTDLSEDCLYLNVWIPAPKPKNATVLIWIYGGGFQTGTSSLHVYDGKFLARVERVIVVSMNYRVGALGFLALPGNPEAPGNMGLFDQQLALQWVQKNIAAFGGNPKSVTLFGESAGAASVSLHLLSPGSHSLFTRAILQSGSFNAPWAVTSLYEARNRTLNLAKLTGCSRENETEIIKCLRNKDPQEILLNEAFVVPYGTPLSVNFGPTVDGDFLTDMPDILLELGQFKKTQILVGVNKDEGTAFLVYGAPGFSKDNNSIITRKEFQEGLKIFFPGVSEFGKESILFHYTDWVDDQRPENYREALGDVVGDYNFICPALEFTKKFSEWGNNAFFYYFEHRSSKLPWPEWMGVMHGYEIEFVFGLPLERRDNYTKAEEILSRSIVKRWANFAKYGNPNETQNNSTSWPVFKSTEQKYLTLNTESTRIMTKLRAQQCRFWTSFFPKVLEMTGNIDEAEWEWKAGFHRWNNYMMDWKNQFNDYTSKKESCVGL
T1 sequence (P22303 32-617 isoform P22303-2 limits assumed): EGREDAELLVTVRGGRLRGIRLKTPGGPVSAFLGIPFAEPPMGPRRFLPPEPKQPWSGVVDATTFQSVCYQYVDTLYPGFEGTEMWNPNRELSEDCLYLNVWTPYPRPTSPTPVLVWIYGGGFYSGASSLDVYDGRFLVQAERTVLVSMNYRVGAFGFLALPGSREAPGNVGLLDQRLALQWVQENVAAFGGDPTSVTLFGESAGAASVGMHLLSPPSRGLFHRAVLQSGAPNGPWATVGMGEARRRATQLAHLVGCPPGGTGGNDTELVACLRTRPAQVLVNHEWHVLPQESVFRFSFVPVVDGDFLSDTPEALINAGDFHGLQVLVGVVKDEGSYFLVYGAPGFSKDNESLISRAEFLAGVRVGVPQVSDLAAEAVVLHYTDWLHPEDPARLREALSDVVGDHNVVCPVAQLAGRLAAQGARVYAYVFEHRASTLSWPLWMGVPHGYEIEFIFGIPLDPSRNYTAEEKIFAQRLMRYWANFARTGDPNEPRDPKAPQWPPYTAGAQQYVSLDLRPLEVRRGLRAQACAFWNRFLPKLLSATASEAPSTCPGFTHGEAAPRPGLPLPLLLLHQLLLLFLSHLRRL
T3 sequence (P56817 46-501): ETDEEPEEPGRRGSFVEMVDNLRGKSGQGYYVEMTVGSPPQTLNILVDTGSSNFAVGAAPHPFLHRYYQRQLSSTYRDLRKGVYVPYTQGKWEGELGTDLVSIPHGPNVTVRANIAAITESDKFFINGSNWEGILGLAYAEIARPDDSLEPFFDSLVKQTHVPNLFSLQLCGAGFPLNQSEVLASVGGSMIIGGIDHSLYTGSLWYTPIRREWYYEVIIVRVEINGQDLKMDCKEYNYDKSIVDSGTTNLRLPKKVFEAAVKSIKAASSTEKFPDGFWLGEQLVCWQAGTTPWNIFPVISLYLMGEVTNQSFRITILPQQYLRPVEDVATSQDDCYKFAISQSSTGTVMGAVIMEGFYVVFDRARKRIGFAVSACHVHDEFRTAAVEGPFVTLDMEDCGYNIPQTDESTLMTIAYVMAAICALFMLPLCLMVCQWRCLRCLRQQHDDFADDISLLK

## Clc1cccc(COc2nn(Cc3cccc4ccccc34)c3ccc(NCCCN4CCCCC4)cc23)c1Cl [Compound 5]
[1]
  IC50: > 10 µM
BuChE from human serum
  IC50: > 10 µM
BACE1
  IC50: 2.7 ± 0.1 µM
[2]
  ORAC (Oxygen Radical Absorbance Capacity): 0.8 ± 0.1 μmol of Trolox equivalents/μmol of tested compound

## O=C(Nc1ccc2c(c1)c(OCc1ccccc1)nn2Cc1ccccc1)c1cccc(Cl)c1Cl [Compound 7]
[1]
  IC50: 7.6 ± 0.3 µM
BuChE from human serum
  IC50: > 10 µM
BACE1
  inhibition at 10 µM: 60%
[2]
  ORAC (Oxygen Radical Absorbance Capacity): 0 μmol of Trolox equivalents/μmol of tested compound

## CCN(CC)C(=O)Nc1ccc2c(c1)c(OCc1cccc3ccccc13)nn2Cc1ccccc1 [Compound 8]
[1]
  inhibition at 10 µM: 29%
  IC50: > 10 µM
BuChE from human serum
  IC50: > 10 µM
BACE1
  IC50: 9.1 ± 0.5 µM
[2]
  Antioxidant properties in relation to Trolox: higher than 60%
  ORAC (Oxygen Radical Absorbance Capacity): 0.9 ± 0.1 μmol of Trolox equivalents/μmol of tested compound

## CN(C(=O)Nc1ccc2c(c1)c(OCc1cccc3ccccc13)nn2Cc1ccc(Cl)cc1)c1ccccc1 [Compound 9]
[1]
  IC50: > 10 µM
BuChE from human serum
  IC50: > 10 µM
BACE1
  inhibition at 10 µM: 29%
  IC50: > 10 µM
[2]
  Antioxidant properties in relation to Trolox: higher than 60%
  ORAC (Oxygen Radical Absorbance Capacity): 0.6 ± 0.1 μmol of Trolox equivalents/μmol of tested compound

## O=C(Nc1ccc2c(c1)c(OCc1cccc3ccccc13)nn2Cc1ccc(Cl)c(Cl)c1)N(c1ccccc1)c1ccccc1 [Compound 10]
[1]
  inhibition at 10 µM: 28%
  IC50: > 10 µM
BuChE from human serum
  IC50: > 10 µM
BACE1
  inhibition at 10 µM: 10%
  IC50: > 10 µM
[2]
  ORAC (Oxygen Radical Absorbance Capacity): 0.2 ± 0.1 μmol of Trolox equivalents/μmol of tested compound

## CN1CCN(C(=O)Nc2ccc3c(c2)c(OCc2ccccc2)nn3Cc2cccc(Cl)c2Cl)CC1 [Compound 11]
[1]
  IC50: > 10 µM
BuChE from human serum
  inhibition at 10 µM: 47%
  IC50: > 10 µM
BACE1
  IC50: 2.8 ± 0.5 µM
[2]
  Antioxidant properties in relation to Trolox: higher than 60%
  ORAC (Oxygen Radical Absorbance Capacity): 1.1 ± 0.1 μmol of Trolox equivalents/μmol of tested compound

## O=C(Nc1ccc2c(c1)c(OCc1cccc(Cl)c1Cl)nn2Cc1cccc2ccccc12)N1CCCC1 [Compound 12]
[1]
  IC50: > 10 µM
BuChE from human serum
  IC50: > 10 µM
BACE1
  inhibition at 10 µM: 43%
  IC50: > 10 µM
[2]
  ORAC (Oxygen Radical Absorbance Capacity): 0.5 ± 0.1 μmol of Trolox equivalents/μmol of tested compound

## Nc1ccc2c(c1)c(OCc1ccccc1)nn2Cc1ccccc1 [Compound 27, 5-amino-1-benzyl-3-(benzyloxy)indazole]
[1]
  IC50: 8.6 ± 0.5 µM
BuChE from human serum
  BuChE percentage of inhibition at 10 µM: very slight inhibition
  inhibition at 10 µM: 21%
  IC50: > 10 µM
BACE1
  inhibition at 10 µM: 2%
  IC50: > 10 µM
[2]
  ORAC (Oxygen Radical Absorbance Capacity): 0.9 ± 0.1 μmol of Trolox equivalents/μmol of tested compound

## Nc1ccc2c(c1)c(OCc1ccc3ccccc3c1)nn2Cc1ccc2ccccc2c1 [Compound 28]
[1]
  IC50: 4.1 ± 0.2 µM
BuChE from human serum
  BuChE percentage of inhibition at 10 µM: very slight inhibition
  inhibition at 10 µM: 24%
  IC50: > 10 µM
BACE1
  IC50: 8.9 ± 0.5 µM
[2]
  ORAC (Oxygen Radical Absorbance Capacity): 0.3 ± 0.1 μmol of Trolox equivalents/μmol of tested compound

## Nc1ccc2c(c1)c(OCc1ccccc1)nn2Cc1cccc(Cl)c1Cl [Compound 29]
[1]
  IC50: > 10 µM
BuChE from human serum
  IC50: > 10 µM
BACE1
  IC50: > 10 µM
[2]
  ORAC (Oxygen Radical Absorbance Capacity): 0.7 ± 0.1 μmol of Trolox equivalents/μmol of tested compound

## Nc1ccc2c(c1)c(OCc1cccc(Cl)c1Cl)nn2Cc1cccc2ccccc12 [Compound 30]
[1]
  inhibition at 10 µM: 36%
  IC50: > 10 µM
BuChE from human serum
  IC50: > 10 µM
BACE1
  inhibition at 10 µM: 79%
[2]
  ORAC (Oxygen Radical Absorbance Capacity): 0.8 ± 0.1 μmol of Trolox equivalents/μmol of tested compound

## Nc1ccc2c(c1)c(OCc1ccc3ccccc3c1)nn2Cc1ccc(Cl)c(Cl)c1 [Compound 31]
[1]
  IC50: 6 ± 0.5 µM
BuChE from human serum
  BuChE percentage of inhibition at 10 µM: very slight inhibition
  inhibition at 10 µM: 30%
  IC50: > 10 µM
BACE1
  inhibition at 10 µM: 69%
[2]
  ORAC (Oxygen Radical Absorbance Capacity): 0.63 ± 0.04 μmol of Trolox equivalents/μmol of tested compound
